Series [1] deals with gastric acid secretion. Briefly: Inhibition of Gastric Acid Secretion Observed Under Acute Fistula Method. It counts as in vivo, male Wistar rats. The settings on record: Rattus norvegicus; 30 mg/kg intraduodenally, rats, histamine 10 mg/kg s.c., cumulative 2 h. Here is the method:
Inhibition of Gastric Acid Secretion Observed Under Acute Fistula Method
Male Wistar rats (6-8 weeks) fasted for 24 hours (water ad libitum) were used. The rats were anesthetized by intraperitoneal administration of 1.25 g/kg of urethane. The abdomen was incised, and acute gastric fistula was connected to the stomach. Two ml of saline was injected into the stomach, and recovered every 20 minutes. The gastric acid secretion was determined by titrating of gastric juice by 150 mM sodium hydroxide up to pH7.0 using an autotitrator. Test compounds (30 mg/kg) suspended in a 0.5% aqueous sodium carboxymethylcellulose (CMC-Na) solution were administered intraduodenally. After 1 hour, gastric acid secretion was stimulated by subcutaneous administration of histamine dihydrochloride dissolved in saline (10 mg/kg). Inhibition (%) of gastric acid secretion was determined by calculating cumulative amount of the acid secretion during two hours after histamine stimulation and then comparing the cumulative amount with that in the control group. In the control group, only 0.5% aqueous CMC-Na solution was administered intraduodenally.

Series [2] has as its system ethanol-induced gastric lesion. Put plainly: Inhibition of Ethanol-induced Gastric Lesion (Protection of gastric mucosa). The format is in vivo, male Wister rats. The following applies: Rattus norvegicus, po, 1 h; 30 mg/kg orally, rats, ethanol 0.5 ml/100 g. The protocol:
Inhibition of Ethanol-induced Gastric Lesion (Protection of gastric mucosa)
Male Wister rats (6-7weeks, 5 rats per group) fasted for 24 hours were used (water ad libitum). Test compound (30 mg/kg) suspended in 0.5% aqueous CMC-Na solution was orally administered. In the control group, only 0.5% aqueous CMC-Na solution was administered. Thirty minutes after administration, 0.5 ml/100 g body weight of ethanol was orally administered to cause gastric lesion. After one hour, the rat was killed by excessive amount of ether, and the stomach was removed and fixed with 2% formalin. After fixation, the stomach was dissected along the large curvature. The size of each of mucosal lesions was measured under dissecting microscope, and the total size of the lesions per rat was determined and used as ulcer index (mm). Inhibition of gastric lesion was determined by comparing the ulcer index in the control group and test group.

The next series addresses T1, H^+ /K^+ -ATPase (Sus scrofa, UniProt P19156).
T1 construct: a microsome fraction prepared from porcine gastric mucosa was used as a standard enzyme; from tissue; host or cells: porcine gastric mucosa, microsome fraction
Briefly: Inhibitory Action on H^+ /K^+ -ATPase Activity. The format is biochemical. The settings on record: microsome fraction from porcine gastric mucosa, pH7.4, 37° C., 30 min preincubation, 15 min reaction. Here is the method:
Inhibitory Action on H^+ /K^+ -ATPase Activity
According to the method of Hongo et al. [The Japanese Journal of Pharmacology, 52, p295, (1990)], a microsome fraction prepared from porcine gastric mucosa was used as a standard enzyme. The standard enzyme (10-20lig protein) and the test compound (0.1-100 μM) dissolved in dimethylsulfoxide was incubated at 37° C. for 30 minutes in the 50 mM Tris-acetate buffer (pH7.4, containing 2 mM magnesium chloride, 5 mM potassium chloride). The enzyme reaction was started by adding adenosinetriphosphate (ATP). Tris at the final concentration of 2 mM, and the reaction was kept at 37° C. for 15 minutes. The reaction was stopped by adding chilled 10% trichloroacetic acid. Inorganic phosphate released during the reaction was calorimetrically determined according to the method of Fiske-Subbarow [The Journal of Biological Chemistry, 66, p375, (1925)]. H^+ /K^+ -ATPase activity was determined by the difference of the enzyme activities under the conditions with or without potassium chloride. The inhibitory activities of test compounds were determined as the 50% inhibitory concentration (IC50 value) from reaction-concentration curve, and the results are shown in Table 3.

Details of series [3]: species or system male ICR mice. The settings on record: mouse, in vivo, po, 10080 min. The protocol: Male ICR mice (6 weeks, 3 mice per group) fasted for 16 hours were used ad libitum). A test compound suspended in 5% aqueous gum arabic solution was orally administered. After administration, mortality of the animals observed during 7 days and approximate lethal dose was determined.

Series [4] concerns gastric acid secretion. Briefly: Inhibition of Gastric Acid Secretion Observed Under Stomach Perfusion Method. It counts as in vivo, male Sprague Dawrey rats. The settings on record: Rattus norvegicus, ip, 1 h; rats, histamine i.v. 8 mg/kg/hr, inhibition one hour after administration (1-10 mg/kg, "intrapenetorially"); read-out: ID50 (dose showing 50% inhibition of acid secretion). Here is the method: Inhibition of Gastric Acid Secretion Observed Under Stomach Perfusion Method
Male Sprague Dawrey rats (6-7weeks) fasted for 24 hours were used (water ad libitum). The rats were anesthetized by intraperitoneal administration of 1.25 g/kg of urethane. The abdomen was incised, and gastral cavity was perfused with saline during experiment. The perfusate was titrated by 10 mM sodium hydroxide up to pH5.5 using an autotitrator in accordance with Stat-method. Gastric acid secretion was stimulated by intravenous administration of histamine dihydrochloride (8 mg/kg/hr). Two hours after histamine stimulation, a test compound 1-10 mg/kg) was administered intrapenetorially. The test compound was mixed with small amount of polysorbate-80, and the mixture was suspended in saline. The test compound was evaluated using ID50 (dose showing 50% inhibition of acid secretion) which was calculated based on inhibition of the acid secretion observed one hour after administration of the compound.

The structures appear in SMILES notation.

The record followed here is US6020342A, “Fused imidazo[1,2-A]pyridines” (Shinnippon Pharmaceutical, Inc., priority 1995, dated 2000).

T1 sequence (P19156 2-1034 limits assumed): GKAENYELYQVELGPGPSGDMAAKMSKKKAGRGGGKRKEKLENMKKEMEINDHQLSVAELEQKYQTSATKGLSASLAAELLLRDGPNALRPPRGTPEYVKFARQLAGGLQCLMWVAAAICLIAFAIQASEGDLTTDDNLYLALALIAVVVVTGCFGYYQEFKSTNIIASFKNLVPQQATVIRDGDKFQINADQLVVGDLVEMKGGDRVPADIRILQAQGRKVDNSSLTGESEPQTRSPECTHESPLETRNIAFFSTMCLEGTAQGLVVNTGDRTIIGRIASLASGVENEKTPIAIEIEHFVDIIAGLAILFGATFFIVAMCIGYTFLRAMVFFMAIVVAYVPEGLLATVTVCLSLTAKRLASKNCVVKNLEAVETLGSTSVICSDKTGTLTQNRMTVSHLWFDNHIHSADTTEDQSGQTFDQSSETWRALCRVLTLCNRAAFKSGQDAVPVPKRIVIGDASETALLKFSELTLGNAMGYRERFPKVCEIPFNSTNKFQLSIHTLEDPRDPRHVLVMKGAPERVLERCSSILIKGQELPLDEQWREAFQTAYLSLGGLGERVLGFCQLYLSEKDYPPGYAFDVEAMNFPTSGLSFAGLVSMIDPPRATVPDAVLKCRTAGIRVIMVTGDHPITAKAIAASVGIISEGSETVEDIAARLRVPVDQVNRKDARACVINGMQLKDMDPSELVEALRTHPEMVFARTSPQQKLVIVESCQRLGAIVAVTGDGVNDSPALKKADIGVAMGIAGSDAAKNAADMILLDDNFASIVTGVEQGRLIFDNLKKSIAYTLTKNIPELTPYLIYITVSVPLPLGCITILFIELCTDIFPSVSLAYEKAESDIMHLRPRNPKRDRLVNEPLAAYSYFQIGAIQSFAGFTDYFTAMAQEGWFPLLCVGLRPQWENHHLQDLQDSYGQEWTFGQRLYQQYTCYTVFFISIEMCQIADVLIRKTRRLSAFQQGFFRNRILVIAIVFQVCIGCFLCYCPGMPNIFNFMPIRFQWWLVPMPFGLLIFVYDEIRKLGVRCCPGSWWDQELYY
T1 sequence (P18434 whole entry partner): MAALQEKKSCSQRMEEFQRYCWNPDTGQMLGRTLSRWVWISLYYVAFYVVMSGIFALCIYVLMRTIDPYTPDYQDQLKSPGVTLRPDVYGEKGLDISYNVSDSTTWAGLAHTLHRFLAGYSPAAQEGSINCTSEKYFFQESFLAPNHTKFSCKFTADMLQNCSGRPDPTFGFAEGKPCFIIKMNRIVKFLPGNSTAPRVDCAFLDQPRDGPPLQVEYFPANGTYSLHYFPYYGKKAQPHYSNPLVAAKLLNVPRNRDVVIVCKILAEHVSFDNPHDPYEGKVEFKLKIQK

For `Cc1ccccc1-c1nc2c3ccccc3ccn2c1N` [Compound 3, 3-Amino-2-(2-methylphenyl)imidazo[2,1-a]isoquinoline], the inhibition in vivo at 30 mg/kg with gastric acid secretion [1] amounted to 82.2%; in series [2], 73.5%. Further, the IC50 on H^+ /K^+ -ATPase turned out to be 26 µM. Moreover, in series [3], the Approximate lethal dose was > 2,000 mg/kg. Besides, in the series on gastric acid secretion [4], the ED50 came out at 3.4 mg/kg.
For `CCNc1c(-c2ccccc2C)nc2c3ccccc3ccn12` [Compound 158, 3-Ethylamino-2-(2-methylphenyl)imidazo[2,1-a]isoquinoline], the figures for the inhibition in vivo at 30 mg/kg (with gastric acid secretion [1]; in series [2]) were 83.6% and 92.4%, respectively. The molecule further registered an IC50 against H^+ /K^+ -ATPase of 13 µM. Moreover, the Approximate lethal dose in series [3] is listed as > 2,000 mg/kg. Besides, in the series with gastric acid secretion [4], the ED50 worked out at 8.6 mg/kg.
As for `CCNc1c(-c2ccccc2C)nc2c3ccccc3c(OC)cn12` [Compound 166, 3-Ethylamino-6-methoxy-2-(2-methylphenyl)imidazo[2,1-a]isoquinoline], the inhibition in vivo at 30 mg/kg in the series on gastric acid secretion [1] worked out at 54.9%; in series [2] it was 49.7%. Moreover, the IC50 at H^+ /K^+ -ATPase amounted to 23 µM. Further, the Approximate lethal dose in series [3] is on record as > 2,000 mg/kg.
Take `CCN(CCOC)c1c(-c2ccccc2C)nc2c3ccccc3ccn12` [Compound 205, 3-[N-Ethyl-N-(2-methoxyethyl)amino]-2-(2-methylphenyl)imidazo[2,1-a]isoquinoline]: the values for the inhibition in vivo at 30 mg/kg (in the series on gastric acid secretion [1]; in series [2]) were 86% and 98.6%, respectively. In addition, in series [3], the Approximate lethal dose is > 2,000 mg/kg.
Turning to `CCc1ccccc1-c1nc2c3ccccc3ccn2c1N(CC)CCC(C)C` [Compound 216, 3-(N-Ethyl-N-isopentylamino)-2-(2-ethylphenyl)imidazo[2,1-a]isoquinoline], in series [2], the inhibition in vivo at 30 mg/kg was found to be 81.7%. The same molecule came in with an IC50 against H^+ /K^+ -ATPase of 2.5 µM. Besides, in series [3], the Approximate lethal dose is given as > 2,000 mg/kg.
For the molecule `C=CCNc1c(-c2ccccc2C)nc2c3ccccc3ccn12` [Compound 221, 3-allylamino-2-(2-methylphenyl)imidazo[2,1-a]isoquinoline], the inhibition in vivo at 30 mg/kg in the series on gastric acid secretion [1] came out at 66.7%; in series [2], 73.7%. Further, the Approximate lethal dose in series [3] was > 2,000 mg/kg.
Take `C=CCN(CC)c1c(-c2ccccc2C)nc2c3ccccc3ccn12` [Compound 222, 3-(N-Allyl-N-ethylamino)-2-(2-methylphenyl)imidazo[2,1-a]isoquinoline]: the inhibition in vivo at 30 mg/kg in the series on gastric acid secretion [1] was found to be 72.6%; in series [2] it was 98.8%. For the same molecule, on H^+ /K^+ -ATPase, 2 µM corresponded to half-maximal inhibition (IC50). In series [3], the Approximate lethal dose is > 2,000 mg/kg.
With `Cc1ccccc1-c1nc2c3ccsc3cc(C)n2c1N` [Compound 236, 3-Amino-5-methyl-2-(2-methylphenyl)imidazo[1,2-a]thieno[3,2-c]pyridine], the inhibition in vivo at 30 mg/kg in series [2] turned out to be 91.5%. The molecule further registered an IC50 at H^+ /K^+ -ATPase of 4.7 µM. Besides, the Approximate lethal dose in series [3] is listed as > 2,000 mg/kg. Moreover, the ED50 in the series with gastric acid secretion [4] is 1.4 mg/kg.
`Cc1sccc1-c1nc2c3ccsc3ccn2c1N` [Compound 254, 3-Amino-2-(2-methyl-3-thienyl)imidazo[1,2-a]thieno[3,2-c]pyridine] gave an inhibition in vivo at 30 mg/kg in series [2] of 92.4%. Moreover, at H^+ /K^+ -ATPase, 4.5 µM corresponded to half-maximal inhibition (IC50). Besides, the ED50 in the series with gastric acid secretion [4] stood at 1.1 mg/kg.
Molecule `Cc1cc(-c2nc3c4ccsc4ccn3c2N)c(C)o1` [Compound 271, 3-Amino-2-(2,5-dimethyl-3-furyl)imidazo[1,2-a]thieno[3,2-c]pyridine] had an inhibition in vivo at 30 mg/kg in series [2] of 99.5%. This molecule yielded an IC50 against H^+ /K^+ -ATPase of 5.2 µM. For the same molecule, the ED50 with gastric acid secretion [4] came out at 2.4 mg/kg.
